In US9458095B2, “Oligo-benzamide compounds and their use in treating cancers” (The Board of Regents of the University of Texas System, priority 2011, dated 2016):

How the values were obtained:
[1] = system: ARE activity in CWR22v1 cells (ARwt and ARv7); experiment: ARE-luciferase reporter in CWR22v1 cells; format: cell-based; conditions: 10 μM casodex or MDV3100, 48 h, without androgen (EtOH)
Method: FIG. 4. Effect of T6 on basal level of ARE expression in CWR22v1 cells. CWR22v1 cells were transiently transfected with ARE-luciferase. Cells were maintained for 48 h without (EtOH) and in the presence of 100 nM of peptidomimetic or volume equivalent of vehicle (DMSO) control or 10 μM of casodex or MDV3100.

ARv7 regulated genes = experiment: Q-PCR of ARv7 regulated genes; format: cell-based; conditions: data not shown
Text: Finally, confirmation of the role of T6 in modulating ARv7 driven transcription was obtained by evaluation of the gene expression of ARv7 regulated genes.

[2] = system: triple negative breast cancer cell line; experiment: Growth inhibition of breast cell lines (MTT); format: cell-based; conditions: 72 h
Method: FIG. 6. Testing of oligo-benzamides for growth inhibition of breast cell lines.
(§1) Cell proliferation rates were measured by using MTT Cell Viability Assay in 96-well micro plates. Model cells were seeded in 96-well plates (2×10^3 cells/well) in DMEM or RPMI medium containing 10% serum. After an overnight incubation, cells were treated with varying concentrations of oligo-benzamides for 72 h and growth inhibition was determined by using traditional MTT assay (Sigma) following manufacturer's instructions.

ovarian cancer cell line = experiment: Growth inhibition of ovarian cell lines (MTT); format: cell-based; conditions: 72 h
Method: FIG. 7. Testing of oligo-benzamides for growth inhibition of ovarian cell lines.
Human Breast cancer cells MCF7, ZR75, glioma cells U87, T98G, LN229, and the ovarian cancer cell line SKOV3 were obtained from the American Type Culture Collection (ATCC) and were maintained using ATCC recommended media.
as §1

U87 = experiment: Growth inhibition of brain cancer cell line U87 (MTT); format: cell-based, Human; conditions: 72 h
Method: (§2) FIGS. 8A-B. Testing of oligo-benzamides for growth inhibitor of two brain cancer cell lines. (FIG. 8A) Results for cell line U87. (FIG. 8B) Results for cell line LN229. […] Human Breast cancer cells MCF7, ZR75, glioma cells U87, T98G, LN229, and the ovarian cancer cell line SKOV3 were obtained from the American Type Culture Collection (ATCC) and were maintained using ATCC recommended media. Cell proliferation rates were measured by using MTT Cell Viability Assay in 96-well micro plates. Model cells were seeded in 96-well plates (2×10^3 cells/well) in DMEM or RPMI medium containing 10% serum. After an overnight incubation, cells were treated with varying concentrations of oligo-benzamides for 72 h and growth inhibition was determined by using traditional MTT assay (Sigma) following manufacturer's instructions.

LN229 = experiment: Growth inhibition of brain cancer cell line LN229 (MTT); format: cell-based, Human; conditions: 72 h
Method: as §2

CH157 = experiment: Growth inhibition of meningioma cell line CH157; format: cell-based
Method: (§3) FIGS. 10A-B. Testing of oligo-benzamide (TK 11) for growth inhibitor of two meningioma brain cancer cell lines. (FIG. 10A) Results for cell line CH157. (FIG. 10B) Results for cell line IOMM-LEE.
as §1

IOMM-LEE = experiment: Growth inhibition of meningioma cell line IOMM-LEE; format: cell-based
Method: as §3, §1

[3] = system: prostate cancer cell line; experiment: Growth inhibition of prostate cancer cell line; format: cell-based
[4] = system: IOSE immortalized normal ovarian cells; experiment: Growth of normal ovarian cells; format: cell-based
Method: FIG. 11. Testing of oligo-benzamides on growth of normal ovarian cells. IOSE are immortalized normal ovarian cells.
as §1

[5] = biological target: T1, PELP1 interaction with estrogen receptor (Homo sapiens, UniProt P03372); experiment: PELP1-ER interaction, GST pull down assay; format: binding; conditions: TK11 500 nM, purified ER, GST-PELP1, E2
T1 construct: purchased
T1 sequence (P03372 1-595): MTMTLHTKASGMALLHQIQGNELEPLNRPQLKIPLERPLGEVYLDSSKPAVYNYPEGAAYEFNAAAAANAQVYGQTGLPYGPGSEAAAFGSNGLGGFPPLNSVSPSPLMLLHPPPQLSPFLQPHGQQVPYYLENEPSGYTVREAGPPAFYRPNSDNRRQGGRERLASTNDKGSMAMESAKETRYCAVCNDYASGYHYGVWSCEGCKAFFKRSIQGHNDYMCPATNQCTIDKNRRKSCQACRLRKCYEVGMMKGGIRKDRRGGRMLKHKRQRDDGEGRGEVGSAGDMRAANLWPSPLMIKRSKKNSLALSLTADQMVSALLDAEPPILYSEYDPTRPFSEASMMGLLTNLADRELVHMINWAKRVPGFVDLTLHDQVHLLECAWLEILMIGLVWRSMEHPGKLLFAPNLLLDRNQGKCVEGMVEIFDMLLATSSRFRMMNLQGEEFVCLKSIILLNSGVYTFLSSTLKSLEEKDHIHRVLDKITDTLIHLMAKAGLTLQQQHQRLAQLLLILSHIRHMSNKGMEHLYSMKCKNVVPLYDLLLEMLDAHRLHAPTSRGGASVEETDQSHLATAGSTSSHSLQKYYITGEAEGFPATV
Method: FIGS. 12A-C. Testing of oligo-benzamides for growth inhibition of estrogen driven proliferation. (FIG. 12A) Structure of peptidomimetics used in the assays. (FIG. 12B) Effect of tribenzamimetics on E2 driven proliferation using ZR75 model cells. (FIG. 12C) Effect of tribenzamides on PELP1-ER interaction. *, P<0.05.
Purified commercially available estrogen receptor (ER) was incubated with biotin-con or biotin-TK11 peptidomimetic in the presence of estrogen (E2). TK11 interaction with ER was determined using avidin immunoprecipitation (IP) followed by western blotting. For some experiments, MCF-7 cells were stimulated with estrogen (E2), nuclear lysates were prepared and incubated with biotin-con or biotin-TK11 peptidomimetic. TK11 interactions with endogenous ER were analyzed by avidin IP. For some experiments, purified ER, GST-PELP1 was incubated in the presence of E2 and ability of control or TK11 (500 nM) to compete PELP1 interaction with ER was determined GST pull down assay.

[6] = system: Tamoxifen therapy resistant MCF7-HER2 and MCF7-TAM cells; experiment: Therapy resistance assay (MTT), hormonal therapy resistant cells; format: cell-based, Human; conditions: tamoxifen (10^-7M) containing media, P<0.05
Method: FIG. 13. Testing of oligo-benzamides for growth inhibition of hormonal therapy resistant cells.
Tamoxifen (Tam) therapy resistant MCF7-HER2 and MCF7-TAM cells were cultured in tamoxifen (10^-7M) containing media in the presence or absence of TK11 and proliferation was measured by MTT assay (Sigma) following manufacturer's instructions.

Structure (SMILES) | basal ARE activity in CWR22v1 cells [1] | expression of a panel of ARv7 regulated genes (Q-PCR) (ARv7 regulated genes) | growth inhibition, triple negative breast cancer cell line [2] | growth inhibition, ovarian cancer cell line (ovarian cancer cell line) | growth inhibition, brain cancer cell line U87 (U87) | growth inhibition, brain cancer cell line LN229 (LN229) | growth inhibition, meningioma cell line CH157 (specificity versus prostate cancer cell line) (CH157) | growth inhibition, meningioma cell line IOMM-LEE (specificity versus prostate cancer cell line) (IOMM-LEE) | potency in inhibiting prostate cancer cell line [3] | potency in inhibiting growth of normal ovarian cells (IOSE) [4] | blocking PELP1 oncogene interactions with estrogen receptor [5] | growth of hormonal therapy resistant cells [6]
CNC(=O)c1ccc(N2C(=S)N(c3ccc(C#N)c(C(F)(F)F)c3)C(=O)C2(C)C)cc1F [MDV3100, reference compound] | neither casodex nor MDV3100 could significantly affect | could not affect | – | – | – | – | – | – | – | – | – | –
CC(C)COc1cc(C(N)=O)ccc1NC(=O)c1ccc(NC(=O)c2ccc([N+](=O)[O-])c(OCCO)c2)c(OCC(C)C)c1 [TK11] | – | – | high potencies | high potency | high potency | high potency | higher specificity | higher specificity | weak potency | weak potency | very efficient in blocking | significantly inhibited
CC(O)(CS(=O)(=O)c1ccc(F)cc1)C(=O)Nc1ccc(C#N)c(C(F)(F)F)c1 (centres unmarked) [casodex, reference compound] | neither casodex nor MDV3100 could significantly affect | could not affect | – | – | – | – | – | – | – | – | – | –
